Test results published in US20180214428A1, “3-(1H-INDOL-2-YL)-1H-PYRAZOLO[3,4-B]PYRIDINES AND THERAPEUTIC USES THEREOF” (Samumed, LLC, priority 2015, published 2018).

How the values were obtained:
[1] = system: SW480 colon cancer cells; assay: Cell viability assay (CellTiter-Blue) in SW480 colon cancer cells; type: cell-based, human; conditions: Homo sapiens; for EC50: 96 h, four days, CellTiter-Blue; for inhibition at 10 µM: given for EC50 of >10 μM, read-out: percent inhibition at 10 μM
Protocol: Representative compounds were screened using the following assay procedure to assess the effect on cell viability as described below.
Each compound was dissolved in DMSO as a 10 mM stock and used to prepare compound source plates. Serial dilution (1:3, 8-point dose-response curves from 10 μM to 0.0045 μM) and compound transfer was performed using the ECHO 550 (Labcyte, Sunnyvale, Calif.) into 96-well clear bottom, black-walled plates (Corning-Costar).
Approximately 2×10^3 SW480 colon cancer cells were seeded into each well and allowed to incubate in the presence or absence of compound for four days at 37° C./5% CO2. Eight replicates of DMSO-treated cells served as controls and cells treated with compound were performed in duplicate.
After incubation, 20 μL of CellTiter-Blue (Promega) was added to each well allowed to incubate for approximately 3 hours. This reagent was a buffered solution which contains resazurin, metabolically active cells were able to reduce rezarurin (blue) into resorufin (pink) which was highly fluorescent. This measured fluorescence was used as a readout for cell viability.
After incubation, the plates were read at Ex 560 nm Em 590 nm (Cytation 3, BioTek). Dose-response curves were generated and EC50 concentration values were calculated using non-linear regression curve fit in the GraphPad Prism (San Diego, Calif.) or Dotmatics' Studies Software (Bishops Stortford, UK). For EC50 of >10 μM, the percent inhibition at 10 μM is provided.

[2] = system: primary human fibroblasts derived from IPF patients (LL29 cells); assay: Inhibition of the fibrotic process: αSMA staining in TGF-β1 treated LL29 fibroblasts; type: cell-based; conditions: Homo sapiens, Fibroblast; for EC50: 96 h, TGF-β1 20 ng/mL, 4 days, % αSMA positive cells
Text: Representative compounds were screened using primary human fibroblasts (derived from IPF patients) treated with TGF-β1 to determine their ability to inhibit the fibrotic process.
Primary human fibroblasts derived from IPF patients (LL29 cells) [^1Xiaoqiu Liu, et. al., “Fibrotic Lung Fibroblasts Show Blunted Inhibition by cAMP Due to Deficient cAMP Response Element-Binding Protein Phosphorylation”, Journal of Pharmacology and Experimental Therapeutics (2005), 315(2), 678-687; ^2Watts, K. L., et. al., “RhoA signaling modulates cyclin D1 expression in human lung fibroblasts; implications for idiopathic pulmonary fibrosis”, Respiratory Research (2006), 7(1), 88] were obtained from American Type Culture Collection (ATCC) and expanded in F12 medium supplemented with 15% Fetal Bovine Serum and Penicillin/Streptomycin.
Each compound was dissolved in DMSO as a 10 mM stock and used to prepare compound source plates. Serial dilution (1:2, 11-point dose-response curves from 10 μM to […]) and compound transfer was performed using the ECHO 550 (Labcyte, Sunnyvale, Calif.) into 384-well clear bottom assay plates (Greiner Bio-One) with appropriate DMSO backfill for a final DMSO concentration of 0.1%. LL29 cells are plated at 1,500 cells/well in 80 μL/well F12 medium supplemented with 1% Fetal Bovine Serum. One hour after addition of the cells, TGF-01 (Peprotech; 20 ng/mL) was added to the plates to induce fibrosis (ref. 1 and 2 above). Wells treated with TGF-β1 and containing DMSO were used as controls. Cells were incubated at 37° C. and 5% CO2 for 4 days. Following incubation for 4 days, SYTOX green nucleic acid stain (Life Technologies [Thermo Fisher Scientific]) was added to the wells at a final concentration of 1 μM and incubated at room temperature for 30 min. Cells were then fixed using 4% formaldehyde (Electron Microscopy Sciences), washed 3 times with PBS followed by blocking and permeabilization using 3% Bovine Serum Albumin (BSA; Sigma) and 0.3% Triton X-100 (Sigma) in PBS. Cells were then stained with antibody specific to α-smooth muscle actin (aSMA; Abcam) (ref. 1 and 2 above) in 3% Bovine Serum Albumin (BSA; Sigma) and 0.3% Triton X-100 (Sigma) in PBS, and incubated overnight at 4° C. Cells were then washed 3 times with PBS, followed by incubation with Alexa Flor-647 conjugated secondary antibody (Life Technologies [Thermo Fisher Scientific]) and DAPI at room temperature for 1 hour. Cells were then washed 3 times with PBS and plates were sealed for imaging. αSMA staining was imaged by excitation at 630 nm and emission at 665 nm and quantified using the Compartmental Analysis program on the CellInsight CX5 (Thermo Scientific). Dead or apoptotic cells were excluded from analysis based on positive SYTOX green staining. % of total cells positive for aSMA were counted in each well and normalized to the average of 11 wells treated with TGF-01 on the same plate using Dotmatics' Studies Software. The normalized averages (fold change over untreated) of 3 replicate wells for each compound concentration were used to create dose-responses curves and EC50 values were calculated using non-linear regression curve fit in the Dotmatics' Studies Software. For EC50 of >10 μM, the percent inhibition at 10 μM is provided.

[3] = system: Wnt activity (Sp5-Luc reporter gene, SW480 colon carcinoma cells); assay: Screening assay for Wnt activity: Sp5-Luc reporter gene assay in SW480 cells; type: cell-based, human; conditions: Homo sapiens; for EC50: overnight incubation
Text: The screening assay for Wnt activity is described as follows. Reporter cell lines can be generated by stably transducing cancer cell lines (e.g., colon cancer) or primary cells (e.g., IEC-6 intestinal cells) with a lentiviral construct that includes a Wnt-responsive promoter driving expression of the firefly luciferase gene.
SW480 colon carcinoma cells were transduced with a lentiviral vector expressing luciferase with a human Sp5 promoter consisting of a sequence of eight TCF/LEF binding sites. SW480 cells stably expressing the Sp5-Luc reporter gene and a hygromycin resistance gene were selected by treatment with 150 μg/mL of hygromycin for 7 days. These stably transduced SW480 cells were expanded in cell culture and used for all further screening activities. Each compound was dissolved in DMSO as a 10 mM stock and used to prepare compound source plates. Serial dilution (1:3, 10-point dose-response curves starting from 10 μM) and compound transfer was performed using the ECHO 550 (Labcyte, Sunnyvale, Calif.) into 384-well white solid bottom assay plates (Greiner Bio-One) with appropriate DMSO backfill for a final DMSO concentration of 0.1%. For Sp5-Luc reporter gene assays, the cells were plated at 4,000 cells/well in 384-well plates with medium containing 1% fetal bovine serum and incubated overnight at 37° C. and 5% CO2. Following incubation, 20 μl of BrightGlo luminescence reagent (Promega) was added to each well of the 384-well assay plates. The plates were placed on an orbital shaker for 2 min and then luminescence was quantified using the Envision (Perkin Elmer) plate reader. Readings were normalized to DMSO only treated cells, and normalized activities were utilized for EC50 calculations using the dose-response log (inhibitor) vs. response variable slope (four parameters) nonlinear regression feature available in GraphPad Prism 5.0 (or Dotmatics). For EC50 of >10 μM, the percent inhibition at 10 μM is provided.

Row | EC50 [1] | EC50 [3] | Structure (SMILES) | inhibition at 10 µM [1] | EC50 [2] | inhibition at 10 µM ([3]; at 10 μM, given for EC50 of >10 μM, read-out: percent inhibition at 10 μM) | inhibition at 10 µM ([2]; at 10 μM, given for EC50 of >10 μM, TGF-β1, αSMA, read-out: percent inhibition at 10 μM)
1 | > 10 µM | 0.295 µM | Fc1cccc(-c2cccc3[nH]c(-c4n[nH]c5ncc(-c6cccnc6)cc45)cc23)c1 [Compound 2, 3-(4-(3-Fluorophenyl)-1H-indol-2-yl)-5-(pyridin-3-yl)-1H-pyrazolo[3,4-b]pyridine] | 4% | 1.43 µM |  | 
2 | 2.59 µM | 0.672 µM | CN(C)c1cncc(-c2cnc3[nH]nc(-c4cc5c(-c6cccc(F)c6)cccc5[nH]4)c3c2)c1 [Compound 5, 5-(3-(4-(3-Fluorophenyl)-1H-indol-2-yl)-1H-pyrazolo[3,4-b]pyridin-5-yl)-N,N-dimethylpyridin-3-amine] |  | 0.95 µM |  | 
3 | > 10 µM | 0.211 µM | CCCC(=O)Nc1cncc(-c2cnc3[nH]nc(-c4cc5c(-c6cccc(F)c6)cccc5[nH]4)c3c2)c1 [Compound 14, N-(5-(3-(4-(3-Fluorophenyl)-1H-indol-2-yl)-1H-pyrazolo[3,4-b]pyridin-5-yl)pyridin-3-yl)butyramide] | 9.9% | > 10 µM |  | 
4 | > 10 µM | > 10 µM | Fc1cccc(-c2cccc3[nH]c(-c4n[nH]c5ncc(-c6ccncc6)cc45)cc23)c1 [Compound 15, 3-(4-(3-Fluorophenyl)-1H-indol-2-yl)-5-(pyridin-4-yl)-1H-pyrazolo[3,4-b]pyridine] | 31.5% | 1.7 µM | 26% | 
5 | > 10 µM | 1.48 µM | O=C(Nc1cncc(-c2cnc3[nH]nc(-c4cc5c(-c6cccc(F)c6)cccc5[nH]4)c3c2)c1)C1CCCCC1 [Compound 19, N-(5-(3-(4-(3-Fluorophenyl)-1H-indol-2-yl)-1H-pyrazolo[3,4-b]pyridin-5-yl)pyridin-3-yl)cyclohexanecarboxamide] | 11.1% | > 10 µM |  | 28.9%
6 | > 10 µM | 3.53 µM | Cc1ccncc1-c1cnc2[nH]nc(-c3cc4c(-c5ccc(F)cc5)cccc4[nH]3)c2c1 [Compound 27, 3-(4-(4-Fluorophenyl)-1H-indol-2-yl)-5-(4-methylpyridin-3-yl)-1H-pyrazolo[3,4-b]pyridine] | 13.9% | 1.61 µM |  | 
7 | > 10 µM | 2.05 µM | CC(C)(C)C(=O)Nc1cncc(-c2cnc3[nH]nc(-c4cc5c(-c6ccc(F)cc6)cccc5[nH]4)c3c2)c1 [Compound 30, N-(5-(3-(4-(4-Fluorophenyl)-1H-indol-2-yl)-1H-pyrazolo[3,4-b]pyridin-5-yl)pyridin-3-yl)pivalamide] | 13.9% | 4.16 µM |  | 
8 | > 10 µM | 2.83 µM | O=C(Nc1cncc(-c2cnc3[nH]nc(-c4cc5c(-c6ccc(F)cc6)cccc5[nH]4)c3c2)c1)c1ccccc1 [Compound 32, N-(5-(3-(4-(4-Fluorophenyl)-1H-indol-2-yl)-1H-pyrazolo[3,4-b]pyridin-5-yl)pyridin-3-yl)benzamide] | 32.5% | 4.95 µM |  | 
9 | 4.83 µM | 2.3 µM | Fc1ccc(-c2cccc3[nH]c(-c4n[nH]c5ncc(-c6cncc(CN7CCCC7)c6)cc45)cc23)cc1 [Compound 35, 3-(4-(4-Fluorophenyl)-1H-indol-2-yl)-5-(5-(pyrrolidin-1-ylmethyl)pyridin-3-yl)-1H-pyrazolo[3,4-b]pyridine] |  | 2.35 µM |  | 
10 | > 10 µM | 3.66 µM | Fc1ccc(-c2cccc3[nH]c(-c4n[nH]c5ncc(-c6cncc(CN7CCCCC7)c6)cc45)cc23)cc1 [Compound 36, 3-(4-(4-Fluorophenyl)-1H-indol-2-yl)-5-(5-(piperidin-1-ylmethyl)pyridin-3-yl)-1H-pyrazolo[3,4-b]pyridine] | 59.2% | 2.44 µM |  | 
11 | 5.1 µM | 0.543 µM | O=C(Nc1cncc(-c2cnc3[nH]nc(-c4cc5c(-c6ccc(F)cc6)cccc5[nH]4)c3c2)c1)C1CCC1 [Compound 41, N-(5-(3-(4-(4-Fluorophenyl)-1H-indol-2-yl)-1H-pyrazolo[3,4-b]pyridin-5-yl)pyridin-3-yl)cyclobutanecarboxamide] |  | 1.16 µM |  | 
12 | > 10 µM | 2.75 µM | Fc1ccc(-c2cccc3[nH]c(-c4n[nH]c5ncc(-c6cncnc6)cc45)cc23)cc1 [Compound 47, 3-(4-(4-Fluorophenyl)-1H-indol-2-yl)-5-(pyrimidin-5-yl)-1H-pyrazolo[3,4-b]pyridine] | 11.8% | 4.96 µM |  | 
13 | 0.589 µM | 0.099 µM | Nc1cncc(-c2cnc3[nH]nc(-c4cc5c(-c6ccccc6F)cccc5[nH]4)c3c2)c1 [Compound 49, 5-(3-(4-(2-Fluorophenyl)-1H-indol-2-yl)-1H-pyrazolo[3,4-b]pyridin-5-yl) pyridin-3-amine] |  | 0.173 µM |  | 
14 | 2.7 µM | 5.84 µM | CCNCc1cncc(-c2cnc3[nH]nc(-c4cc5c(-c6ccccc6F)cccc5[nH]4)c3c2)c1 [Compound 52, N-((5-(3-(4-(2-Fluorophenyl)-1H-indol-2-yl)-1H-pyrazolo[3,4-b]pyridin-5-yl)pyridin-3-yl)methyl)ethanamine] |  | 0.991 µM |  | 
15 | > 10 µM | 2.17 µM | CC(C)(C)CC(=O)Nc1cncc(-c2cnc3[nH]nc(-c4cc5c(-c6ccccc6F)cccc5[nH]4)c3c2)c1 [Compound 61, N-(5-(3-(4-(2-Fluorophenyl)-1H-indol-2-yl)-1H-pyrazolo[3,4-b]pyridin-5-yl)pyridin-3-yl)-3,3-dimethylbutanamide] | 25.2% | 4.97 µM |  | 
